Measurements published in ChEMBL document CHEMBL1201862, “PubChem BioAssay data set” (2004).
Activity calls are given as the source filed them.

Assays:
[1] = inhibitors of clade B AD8 Env fusion, dose response, cell-based, cherry-pick (AID 652062); assay type: functional;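 also: luciferase signal from cell-cell fusion driven by HIV-1 clade B AD8 Env; potency is for inhibitors of fusion seen as a drop in luminescence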
[2] = intracellular Trypanosoma cruzi inhibitors in host cells – cell-based, plate reader, cherry-pick samples, set 3, dose response (AID 651818); assay type: functional;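 also: compounds incubated with infected cells for about four days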
[3] = molecular target: T1, Heat shock factor protein 1 (Mus musculus, UniProt P38532); experiment: HSF1 potentiators in luciferase reporter cells, confirmation, cell-based, NIH3T3, luminescence, dose retest (AID 435004); assay type: functional;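 also: stress induced by proteasome inhibitor MG132 added 30 min after compound; luciferase reporter driven by HSF1 response element in NIH3T3 cells; actives raise luminescence as potentiators of the MG132 stress response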
T1 sequence (P38532 whole entry): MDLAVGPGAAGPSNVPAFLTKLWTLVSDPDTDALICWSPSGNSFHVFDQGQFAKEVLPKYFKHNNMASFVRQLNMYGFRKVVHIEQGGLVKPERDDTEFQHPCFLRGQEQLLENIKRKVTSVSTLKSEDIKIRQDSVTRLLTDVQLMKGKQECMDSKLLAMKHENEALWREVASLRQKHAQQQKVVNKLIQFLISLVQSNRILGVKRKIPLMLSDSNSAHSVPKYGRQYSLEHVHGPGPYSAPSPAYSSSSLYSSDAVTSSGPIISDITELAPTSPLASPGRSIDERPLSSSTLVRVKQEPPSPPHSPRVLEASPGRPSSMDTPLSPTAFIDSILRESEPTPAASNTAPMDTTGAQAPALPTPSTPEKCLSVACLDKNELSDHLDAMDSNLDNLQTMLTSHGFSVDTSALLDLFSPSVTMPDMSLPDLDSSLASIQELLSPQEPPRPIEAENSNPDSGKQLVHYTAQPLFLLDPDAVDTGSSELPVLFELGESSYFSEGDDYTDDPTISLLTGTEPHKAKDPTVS

Vero [4] = experiment: cells; assay type: functional; conditions: Chlorocebus sabaeus
Vero [5] = experiment: cells; assay type: functional, cell-based; conditions: Chlorocebus sabaeus
[6] = molecular target: T2, Histone-lysine N-methyltransferase NSD2 (Homo sapiens, UniProt O96028); assay type: biochemical
T2 sequence (O96028 whole entry): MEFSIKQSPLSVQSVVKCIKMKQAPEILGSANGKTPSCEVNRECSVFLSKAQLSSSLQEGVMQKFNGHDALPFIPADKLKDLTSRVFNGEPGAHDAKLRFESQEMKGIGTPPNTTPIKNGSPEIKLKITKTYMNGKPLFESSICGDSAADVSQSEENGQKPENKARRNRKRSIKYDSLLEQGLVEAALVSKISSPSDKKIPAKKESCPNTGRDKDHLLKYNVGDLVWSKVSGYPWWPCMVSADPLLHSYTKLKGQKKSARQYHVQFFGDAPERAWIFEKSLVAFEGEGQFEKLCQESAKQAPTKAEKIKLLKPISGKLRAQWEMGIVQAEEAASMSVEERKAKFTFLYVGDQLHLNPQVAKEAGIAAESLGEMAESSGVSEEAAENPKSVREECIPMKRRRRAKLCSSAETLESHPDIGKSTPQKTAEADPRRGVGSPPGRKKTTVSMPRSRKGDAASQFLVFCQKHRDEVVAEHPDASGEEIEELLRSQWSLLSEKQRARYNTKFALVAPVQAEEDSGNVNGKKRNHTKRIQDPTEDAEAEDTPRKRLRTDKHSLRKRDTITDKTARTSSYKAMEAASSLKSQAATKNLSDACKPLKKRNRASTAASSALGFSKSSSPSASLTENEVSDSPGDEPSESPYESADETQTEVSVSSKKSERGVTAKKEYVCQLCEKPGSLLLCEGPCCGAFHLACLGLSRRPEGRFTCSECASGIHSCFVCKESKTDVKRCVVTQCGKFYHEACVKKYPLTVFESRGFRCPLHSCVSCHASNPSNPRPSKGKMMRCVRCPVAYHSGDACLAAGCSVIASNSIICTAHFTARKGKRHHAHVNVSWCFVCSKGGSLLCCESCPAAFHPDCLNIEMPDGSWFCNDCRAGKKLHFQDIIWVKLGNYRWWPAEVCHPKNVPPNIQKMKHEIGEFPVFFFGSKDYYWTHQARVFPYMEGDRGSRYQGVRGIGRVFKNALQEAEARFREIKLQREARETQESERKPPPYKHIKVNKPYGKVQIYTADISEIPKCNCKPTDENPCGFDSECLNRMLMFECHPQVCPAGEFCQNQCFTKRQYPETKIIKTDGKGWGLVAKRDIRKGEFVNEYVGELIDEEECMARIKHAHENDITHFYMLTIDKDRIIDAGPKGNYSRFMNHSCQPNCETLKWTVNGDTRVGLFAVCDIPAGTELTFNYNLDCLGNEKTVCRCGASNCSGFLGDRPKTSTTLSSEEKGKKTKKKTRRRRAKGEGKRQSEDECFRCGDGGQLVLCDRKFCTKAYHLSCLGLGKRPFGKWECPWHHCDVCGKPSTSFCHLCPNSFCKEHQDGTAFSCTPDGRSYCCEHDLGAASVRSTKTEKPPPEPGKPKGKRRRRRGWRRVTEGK

Large T antigen = Large T antigen (Simian virus 40, UniProt P03070); assay type: functional, Betapolyomavirus macacae;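 also: Confirmatory-stage PubChem screen for compounds that inhibit SV40 T antigen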
H9c2 = experiment: cells; assay type: functional, cell-based; conditions: Rattus norvegicus, H9c2, Myocardium;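 also: confirmatory concentration-response retest of ultra-high-throughput screening hits for modulation of myocardial damage; cell death induced by hydrogen peroxide oxidative stress; compound pretreatment for 60 min then peroxide exposure for 2 h; potency is for protecting the cells against peroxide damage rather than for killing them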
HEK293 = experiment: inhibitors of LMP1-driven NF-kB reporter, dose response, cell-based, HEK293, luciferase, cherry-pick (AID 588343); assay type: functional; conditions: Homo sapiens
[7] = molecular target: T3, Rac GTPase-activating protein 1 (Homo sapiens, UniProt Q9H0H5); experiment: MgcRacGAP GTPase-activating activity inhibitors, confirmation, biochemical, ADP Hunter fluorescence, primary and confirmatory (AID 624330); assay type: functional
T3 sequence (Q9H0H5 whole entry): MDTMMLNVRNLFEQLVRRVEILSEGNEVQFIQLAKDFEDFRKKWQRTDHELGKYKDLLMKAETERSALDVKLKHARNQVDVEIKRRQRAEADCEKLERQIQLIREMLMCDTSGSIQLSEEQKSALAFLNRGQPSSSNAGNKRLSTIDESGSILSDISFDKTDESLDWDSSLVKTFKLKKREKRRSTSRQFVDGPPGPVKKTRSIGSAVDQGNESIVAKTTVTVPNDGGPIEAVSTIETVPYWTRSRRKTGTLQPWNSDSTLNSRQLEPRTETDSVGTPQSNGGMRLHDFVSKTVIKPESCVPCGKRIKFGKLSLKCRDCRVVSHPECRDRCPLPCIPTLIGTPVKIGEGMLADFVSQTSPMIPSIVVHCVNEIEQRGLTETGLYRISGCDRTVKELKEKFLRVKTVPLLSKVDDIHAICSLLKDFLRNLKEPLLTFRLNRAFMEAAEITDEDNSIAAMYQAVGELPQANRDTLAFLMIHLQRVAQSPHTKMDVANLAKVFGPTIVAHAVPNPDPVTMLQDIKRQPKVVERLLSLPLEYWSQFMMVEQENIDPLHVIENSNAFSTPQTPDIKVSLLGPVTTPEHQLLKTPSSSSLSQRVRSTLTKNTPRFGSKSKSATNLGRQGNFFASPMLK

[8] = Shn3 3'UTR reporter inhibitors, dose response, cell-based, Clone20 osteoblasts, firefly luciferase, cherry-picked (AID 624132); assay type: functional;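 also: firefly luciferase luminescence from reporter carrying the Shn3 3'UTR in osteoblasts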
Paired box protein Pax-8 = Paired box protein Pax-8 (Homo sapiens, UniProt Q06710); experiment: inhibitors of PAX8-driven TPO luciferase reporter, dose response, RMG-I cells, cherry-pick (AID 687027); assay type: functional, cell-based;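 also: luciferase reporter driven by Pax8 target thyroperoxidase promoter measured by SteadyGlo luminescence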
[9] = control 3'UTR Renilla luciferase suppression, dose response, counter-screen for Shn3 inhibitor project, cell-based, Clone20-Shn3RL, cherry-picked (AID 624133); assay type: functional
[10] = molecular target: T4, Replicative DNA helicase DnaB (Mycobacterium tuberculosis, UniProt P9WMR3); experiment: DnaB intein splicing inhibitors, dose response, biochemical, cell-free fluorescence (AID 449749); assay type: functional
T4 sequence (P9WMR3 whole entry): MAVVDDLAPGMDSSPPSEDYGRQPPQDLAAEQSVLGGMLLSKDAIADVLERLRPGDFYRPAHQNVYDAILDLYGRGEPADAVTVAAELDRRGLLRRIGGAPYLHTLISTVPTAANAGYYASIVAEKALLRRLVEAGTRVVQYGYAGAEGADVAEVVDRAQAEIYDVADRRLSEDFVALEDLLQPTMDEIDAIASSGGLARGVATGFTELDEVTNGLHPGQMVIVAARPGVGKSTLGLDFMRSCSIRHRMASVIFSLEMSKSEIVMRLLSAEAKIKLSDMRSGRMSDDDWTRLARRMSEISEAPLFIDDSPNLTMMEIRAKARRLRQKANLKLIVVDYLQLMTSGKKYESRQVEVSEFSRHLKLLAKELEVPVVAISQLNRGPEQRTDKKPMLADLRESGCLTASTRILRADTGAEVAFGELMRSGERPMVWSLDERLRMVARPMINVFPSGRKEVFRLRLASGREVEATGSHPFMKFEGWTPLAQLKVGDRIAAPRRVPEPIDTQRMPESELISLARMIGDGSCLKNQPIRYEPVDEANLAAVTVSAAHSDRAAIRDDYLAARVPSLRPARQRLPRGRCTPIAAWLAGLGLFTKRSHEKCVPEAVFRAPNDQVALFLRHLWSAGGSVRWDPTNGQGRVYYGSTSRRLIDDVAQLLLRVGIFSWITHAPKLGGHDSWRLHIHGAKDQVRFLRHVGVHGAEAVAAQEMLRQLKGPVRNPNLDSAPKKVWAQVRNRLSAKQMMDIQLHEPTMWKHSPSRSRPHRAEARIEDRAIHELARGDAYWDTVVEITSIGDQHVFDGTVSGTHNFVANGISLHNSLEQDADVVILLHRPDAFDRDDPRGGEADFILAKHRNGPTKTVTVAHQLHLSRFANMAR

Protein RecA = molecular target: T5, Protein RecA (Mycobacterium tuberculosis, UniProt P9WHJ3); experiment: Fluorescence Cell-Free Homogeneous Dose Retest to Identify Inhibitors of RecA-Intein Splicing Activity. [Related pubchem assays (depositor defined):AID2097, AID2223, AID489010, AID492950]; assay type: functional
T5 sequence (P9WHJ3 whole entry): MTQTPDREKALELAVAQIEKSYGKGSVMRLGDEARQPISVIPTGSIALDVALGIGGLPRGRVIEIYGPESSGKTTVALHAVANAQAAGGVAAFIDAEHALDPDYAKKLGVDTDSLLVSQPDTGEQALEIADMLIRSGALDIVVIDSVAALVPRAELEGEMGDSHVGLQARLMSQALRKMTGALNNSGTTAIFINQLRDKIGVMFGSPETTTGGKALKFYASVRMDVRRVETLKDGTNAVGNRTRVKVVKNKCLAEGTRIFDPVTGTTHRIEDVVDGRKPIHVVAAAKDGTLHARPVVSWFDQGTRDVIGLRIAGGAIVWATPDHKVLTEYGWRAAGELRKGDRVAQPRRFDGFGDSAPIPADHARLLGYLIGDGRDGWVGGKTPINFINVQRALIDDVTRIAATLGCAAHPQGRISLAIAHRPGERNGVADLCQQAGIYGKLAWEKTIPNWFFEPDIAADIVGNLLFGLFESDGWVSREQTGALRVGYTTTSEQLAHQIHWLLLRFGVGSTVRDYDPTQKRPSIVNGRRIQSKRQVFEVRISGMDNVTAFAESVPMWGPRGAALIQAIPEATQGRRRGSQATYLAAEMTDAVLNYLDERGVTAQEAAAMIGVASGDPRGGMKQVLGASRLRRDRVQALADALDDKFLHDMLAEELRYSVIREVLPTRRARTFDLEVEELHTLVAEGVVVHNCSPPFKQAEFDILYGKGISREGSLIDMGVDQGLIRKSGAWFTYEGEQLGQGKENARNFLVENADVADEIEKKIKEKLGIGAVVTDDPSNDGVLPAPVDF

[11] = Luminescence Cell-Based Dose Retest to Confirm Inhibitors of Cancer Stem Cells. [Related pubchem assays (depositor defined):AID2717, AID2721]; assay type: functional; conditions: Homo sapiens
[12] = inhibitors of HIV Env-driven cell fusion, dose response, cherry-pick (AID 652057); assay type: functional, cell-based

Sequence of Large T antigen (P03070 whole entry): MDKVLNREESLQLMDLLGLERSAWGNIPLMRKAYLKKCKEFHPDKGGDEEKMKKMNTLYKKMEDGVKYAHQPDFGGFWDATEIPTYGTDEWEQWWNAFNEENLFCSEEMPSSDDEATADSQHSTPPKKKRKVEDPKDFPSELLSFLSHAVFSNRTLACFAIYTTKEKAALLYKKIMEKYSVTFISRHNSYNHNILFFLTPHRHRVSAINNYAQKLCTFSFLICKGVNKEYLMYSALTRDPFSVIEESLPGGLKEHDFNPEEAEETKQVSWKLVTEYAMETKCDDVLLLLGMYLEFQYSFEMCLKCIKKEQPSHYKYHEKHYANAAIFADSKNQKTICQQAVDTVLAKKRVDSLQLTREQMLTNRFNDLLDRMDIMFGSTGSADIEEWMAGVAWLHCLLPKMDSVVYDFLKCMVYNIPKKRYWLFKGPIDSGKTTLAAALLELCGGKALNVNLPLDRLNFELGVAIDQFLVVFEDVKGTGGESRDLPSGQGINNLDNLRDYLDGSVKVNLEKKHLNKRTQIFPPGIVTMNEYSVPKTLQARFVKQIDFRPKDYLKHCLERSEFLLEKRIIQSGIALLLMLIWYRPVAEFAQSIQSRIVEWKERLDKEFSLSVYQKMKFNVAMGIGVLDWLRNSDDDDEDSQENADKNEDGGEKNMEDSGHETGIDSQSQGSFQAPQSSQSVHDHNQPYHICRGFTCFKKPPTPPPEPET
Sequence of Paired box protein Pax-8 (Q06710 whole entry): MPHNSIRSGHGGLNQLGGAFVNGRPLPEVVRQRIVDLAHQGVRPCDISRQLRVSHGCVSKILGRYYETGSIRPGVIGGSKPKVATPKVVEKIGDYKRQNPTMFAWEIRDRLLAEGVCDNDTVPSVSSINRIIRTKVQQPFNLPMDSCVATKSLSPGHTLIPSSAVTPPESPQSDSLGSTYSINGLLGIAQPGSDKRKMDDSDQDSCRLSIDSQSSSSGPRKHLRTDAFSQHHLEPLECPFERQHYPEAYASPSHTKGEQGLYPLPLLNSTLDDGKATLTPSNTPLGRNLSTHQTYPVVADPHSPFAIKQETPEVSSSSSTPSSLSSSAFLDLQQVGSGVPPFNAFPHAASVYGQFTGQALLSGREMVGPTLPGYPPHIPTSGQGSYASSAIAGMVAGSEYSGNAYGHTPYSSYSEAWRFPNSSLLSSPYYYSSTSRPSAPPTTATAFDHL

In the case of `Cc1ccc(S(=O)(=O)N(C)c2ccc(C(=O)N3CCN(Cc4ccc5c(c4)OCO5)CC3)cc2)cc1`, the AC50 [1] is reported as 14 µM (active).
For `Cc1ccc(S(=O)(=O)Nc2cccc3c2O[C@@H](CN(C)S(=O)(=O)c2ccc(Cl)cc2)[C@@H](C)CN([C@H](C)CO)C3=O)cc1`, the AC50 [2] was 8.14 µM (active).
In the case of `COc1ccc(/C=C\c2nc(=O)c3ccccc3o2)cc1`, the EC50 [3] is reported as 20.9 µM (active), the CC50 (Vero [4]) is reported as 16.6 µM (active) and the IC50 (Vero [5]) is reported as 19.9 µM (active).
In the case of `C[C@H](CO)N1C[C@H](C)[C@@H](CN(C)Cc2ccncc2)Oc2c(NC(=O)C3CCOCC3)cccc2C1=O`, the AC50 [2] is reported as 20 µM (inactive).
For `C[C@@H]1CN([C@@H](C)CO)C(=O)c2cccc(NC(=O)Nc3ccc(C(F)(F)F)cc3)c2O[C@@H]1CN(C)S(=O)(=O)c1ccc(F)cc1`, the AC50 [2] was 4.16 µM (active).
For `CC(C)c1ccc(S(=O)(=O)N2CCN(CC(=O)c3ccc(O)c(O)c3)CC2)cc1`, the AC50 [6] was 4.68 µM (active), the IC50 (Large T antigen) was 23.6 µM (active) and the IC50 (H9c2) was > 79 µM (inactive).
With `COc1ccc(-c2cc3c(=O)n(CC(=O)NCCCN4CCN(Cc5ccccc5)CC4)ncn3n2)cc1` the AC50 (HEK293) was 2.22 µM (active).
In the case of `CN(C)c1ccc2cc(S(=O)(=O)O)cc(O)c2c1`, the AC50 [6] is reported as 0.747 µM (active) and the IC50 [7] is reported as 42.9 µM (active).
For `CC(C)(O)/C=C/C(=O)C(C)(O)C1C(O)CC2(C)C3CC=C4C(C=C(O)C(=O)C4(C)C)C3(C)C(=O)CC12C` (stereo not drawn), the CC50 (Vero [4]) was 0.08 µM (active), the AC50 [8] was 1.83 µM (active) and the AC50 (Paired box protein Pax-8) was < 0.26 µM (active). The AC50 [9] was 4.47 µM (active) and the IC50 (Vero [5]) was > 25 µM (active).
For `C[C@H](CO)N1C[C@H](C)[C@H](CN(C)Cc2ccc(C(=O)Nc3ccccc3N)cc2)Oc2ccc(NC(=O)Cc3ccccc3)cc2CC1=O`, the AC50 [2] was 2.95 µM (active).
With `COc1cccc(/C=C/C(=O)c2ccc(NS(=O)(=O)c3ccc(C)cc3)cc2)c1` the CC50 (Vero [4]) was 20.4 µM (active), the AC50 [10] was 9.15 µM (active) and the EC50 (Protein RecA) was 15.4 µM (active). The AC50 [11] was 2.91 µM (active) and the IC50 (Vero [5]) was 24 µM (active).
For `O=C(C[C@@H]1CC[C@H]2[C@@H](COC[C@@H](O)CN2C(=O)c2ccc(F)cc2)O1)NC1Cc2ccccc2C1`, the AC50 [12] was 1.62 µM (active) and the AC50 [1] was 3.86 µM (active).
In the case of `CCN(CC)CCCN(Cc1cc2cc(OC)c(OC)cc2nc1O)C(=O)Nc1ccccc1`, the AC50 [6] is reported as > 20 µM (inactive).
With `C[C@@H]1CN([C@@H](C)CO)C(=O)c2cccc(NC(=O)CCCCCC(=O)Nc3ccccc3N)c2O[C@H]1CN(C)Cc1ccc2c(c1)OCO2` the AC50 [2] was 2.58 µM (active).
